# Test system: AMPK
# Assay: AMPK activation assay (enzyme-linked immunosorbent assay)
# Assay type: cell-based
# Summary of the method: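 Kit-based immunoassay; compounds screened as activators; standard reagents and protocol.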
row,SMILES,EC50 [nM]
1,"N#Cc1ccc(OC2CCN(C(=O)c3ccc(C(=O)NC4CCN(Cc5ccc(F)cc5)CC4)nc3)CC2)cc1 [Compound 200, 5-(4-(4-cyanophenoxy)piperidine-1-carbonyl)-N-(1-(4-fluorobenzyl)piperidin-4-yl)picolinamide]",< 500
2,"NC(=O)c1ccc(CN2CCC(NC(=O)c3ccc(C(=O)N4CCN(Cc5ccc(F)cc5)CC4)cn3)CC2)cc1 [Compound 201, N-(1-(4-carbamoylbenzyl)piperidin-4-yl)-5-(4-(4-fluorobenzyl)piperazine-1-carbonyl)picolinamide]",500 to 1000
3,"COc1ccc(CN2CCC(NC(=O)c3ccc(C(=O)N4CCC(Oc5ccc(S(C)(=O)=O)cc5)CC4)cn3)CC2)cc1 [Compound 202, N-(1-(4-methoxybenzyl)piperidin-4-yl)-5-(4-(4-(methylsulfonyl)phenoxy)piperidine-1-carbonyl)picolinamide]",< 500
4,"CS(=O)(=O)c1ccc(OC2CCN(C(=O)c3ccc(C(=O)NC4CCN(Cc5cc(F)cc(F)c5)CC4)nc3)CC2)cc1 [Compound 203, N-(1-(3,5-difluorobenzyl)piperidin-4-yl)-5-(4-(4-(methylsulfonyl)phenoxy)piperidine-1-carbonyl)picolinamide]",< 500
5,"COc1ccc(C(=O)C2CCN(C(=O)c3cnc(C(=O)Nc4ccc(Oc5ccc(F)cc5)nc4)cn3)CC2)cc1 [Compound 204, N-(6-(4-fluorophenoxy)pyridin-3-yl)-5-(4-(4-methoxybenzoyl)piperidine-1-carbonyl)pyrazine-2-carboxamide]",< 500
6,"O=C(Nc1ccc(Oc2ccc(F)cc2)nc1)c1cnc(C(=O)N2CCC(Oc3ccc(C(F)(F)F)cc3)CC2)cn1 [Compound 205, N-(6-(4-fluorophenoxy)pyridin-3-yl)-5-(4-(4-(trifluoromethyl)phenoxy)piperidine-1-carbonyl)pyrazine-2-carboxamide]",< 500
7,"O=C(Nc1ccc(Oc2ccc(F)cc2)nc1)c1cnc(C(=O)N2CCC(C(=O)c3ccc(F)cc3F)CC2)cn1 [Compound 206, 5-(4-(2,4-difluorobenzoyl)piperidine-1-carbonyl)-N-(6-(4-fluorophenoxy)pyridin-3-yl)pyrazine-2-carboxamide]",< 500
8,"CS(=O)(=O)c1ccc(OC2CCN(C(=O)c3cnc(C(=O)Nc4ccc(Oc5ccc(F)cc5)nc4)cn3)CC2)cc1 [Compound 207, N-(6-(4-fluorophenoxy)pyridin-3-yl)-5-(4-(4-(methylsulfonyl)phenoxy)piperidine-1-carbonyl)pyrazine-2-carboxamide]",< 500
9,"CS(=O)(=O)c1ccc(OC2CCN(C(=O)c3ccc(C(=O)NC4CCN(Cc5ccc(N6CCCC6)cc5)CC4)nc3)CC2)cc1 [Compound 208, 5-(4-(4-(methylsulfonyl)phenoxy)piperidine-1-carbonyl)-N-(1-(4-(pyrrolidin-1-yl)benzyl)piperidin-4-yl)picolinamide]",< 500
10,"N#Cc1ccc(CN2CCC(NC(=O)c3ccc(C(=O)N4CC(Oc5ccc(C#N)cc5)C4)cn3)CC2)cc1 [Compound 209, N-(1-(4-cyanobenzyl)piperidin-4-yl)-5-(3-(4-cyanophenoxy)azetidine-1-carbonyl)picolinamide]",< 500
11,"N#Cc1ccc(OC2CN(C(=O)c3ccc(C(=O)Nc4ccc(Oc5ccc(F)cc5)nc4)nc3)C2)cc1 [Compound 210, 5-(3-(4-cyanophenoxy)azetidine-1-carbonyl)-N-(6-(4-fluorophenoxy)pyridin-3-yl)picolinamide]",> 10000
12,"COc1ccc(C(=O)C2CCN(C(=O)c3cnc(C(=O)NC4CCN(Cc5ccc(C#N)cc5)CC4)cn3)CC2)cc1 [Compound 211, N-(1-(4-cyanobenzyl)piperidin-4-yl)-5-(4-(4-methoxybenzoyl)piperidine-1-carbonyl)pyrazine-2-carboxamide]",< 500
13,"N#Cc1ccc(CN2CCC(NC(=O)c3cnc(C(=O)N4CCC(Oc5ccc(C(F)(F)F)cc5)CC4)cn3)CC2)cc1 [Compound 212, N-(1-(4-cyanobenzyl)piperidin-4-yl)-5-(4-(4-(trifluoromethyl)phenoxy)piperidine-1-carbonyl)pyrazine-2-carboxamide]",< 500
14,"CS(=O)(=O)c1ccc(CN2CCC(NC(=O)c3ccc(C(=O)N4CCC(C(=O)c5ccc(F)cc5F)CC4)nc3)CC2)cc1 [Compound 213, 6-(4-(2,4-difluorobenzoyl)piperidine-1-carbonyl)-N-(1-(4-(methylsulfonyl)benzyl)piperidin-4-yl)nicotinamide]",< 500
15,"CS(=O)(=O)c1ccc(CN2CCC(NC(=O)c3ccc(C(=O)N4CCC(Oc5ccc(C#N)cc5)CC4)nc3)CC2)cc1 [Compound 214, 6-(4-(4-cyanophenoxy)piperidine-1-carbonyl)-N-(1-(4-(methylsulfonyl)benzyl)piperidin-4-yl)nicotinamide]",> 10000
16,"COc1ccc(C(=O)C2CCN(C(=O)c3ccc(C(=O)NC4CCN(Cc5ccc(S(C)(=O)=O)cc5)CC4)cn3)CC2)cc1 [Compound 215, 6-(4-(4-methoxybenzoyl)piperidine-1-carbonyl)-N-(1-(4-(methylsulfonyl)benzyl)piperidin-4-yl)nicotinamide]",> 10000

row,SMILES,EC50 [nM]
1,"CS(=O)(=O)Nc1ccc(CN2CCC(NC(=O)c3ccc(C(=O)N4CCC(C(=O)c5ccc(F)cc5F)CC4)nc3)CC2)cc1 [Compound 216, 6-(4-(2,4-difluorobenzoyl)piperidine-1-carbonyl)-N-(1-(4-(methylsulfonamido)benzyl)piperidin-4-yl)nicotinamide]",> 10000
2,"CS(=O)(=O)Nc1ccc(CN2CCC(NC(=O)c3ccc(C(=O)N4CCC(Oc5ccc(C#N)cc5)CC4)nc3)CC2)cc1 [Compound 217, 6-(4-(4-cyanophenoxy)piperidine-1-carbonyl)-N-(1-(4-(methylsulfonamido)benzyl)piperidin-4-yl)nicotinamide]",> 10000
3,"CS(=O)(=O)c1ccc(OC2CCN(C(=O)c3cnc(C(=O)NC4CCN(Cc5ccc(C#N)cc5)CC4)cn3)CC2)cc1 [Compound 218, N-(1-(4-cyanobenzyl)piperidin-4-yl)-5-(4-(4-(methylsulfonyl)phenoxy)piperidine-1-carbonyl)pyrazine-2-carboxamide]",< 500
4,"N#Cc1ccc(CN2CCC(NC(=O)c3cnc(C(=O)N4CCC(C(=O)c5ccc(N6CCCC6)cc5)CC4)cn3)CC2)cc1 [Compound 219, N-(1-(4-cyanobenzyl)piperidin-4-yl)-5-(4-(4-(pyrrolidin-1-yl)benzoyl)piperidine-1-carbonyl)pyrazine-2-carboxamide]",< 500
5,"CN1CCN(c2ccc(C(=O)C3CCN(C(=O)c4cnc(C(=O)NC5CCN(Cc6ccc(C#N)cc6)CC5)cn4)CC3)cc2)CC1 [Compound 220, N-(1-(4-cyanobenzyl)piperidin-4-yl)-5-(4-(4-(4-methylpiperazin-1-yl)benzoyl)piperidine-1-carbonyl)pyrazine-2-carboxamide]",< 500
6,"CS(=O)(=O)c1ccc(C(=O)C2CCN(C(=O)c3ccc(C(=O)NC4CCN(Cc5ccc(C#N)cc5)CC4)cn3)CC2)cc1 [Compound 221, N-(1-(4-cyanobenzyl)piperidin-4-yl)-6-(4-(4-(methylsulfonyl)benzoyl)piperidine-1-carbonyl)nicotinamide]",1000 to 5000
7,"CS(=O)(=O)c1ccc(C(=O)C2CCN(C(=O)c3ccc(C(=O)NC4CCN(Cc5ccc(F)cc5)CC4)cn3)CC2)cc1 [Compound 222, N-(1-(4-fluorobenzyl)piperidin-4-yl)-6-(4-(4-(methylsulfonyl)benzoyl)piperidine-1-carbonyl)nicotinamide]",1000 to 5000
8,"COc1ccc(CN2CCC(NC(=O)c3ccc(C(=O)N4CCC(C(=O)c5ccc(S(C)(=O)=O)cc5)CC4)nc3)CC2)cc1 [Compound 223, N-(1-(4-methoxybenzyl)piperidin-4-yl)-6-(4-(4-(methylsulfonyl)benzoyl)piperidine-1-carbonyl)nicotinamide]",1000 to 5000
9,"CS(=O)(=O)c1ccc(C(=O)C2CCN(C(=O)c3ccc(C(=O)Nc4ccc(Oc5ccc(F)cc5)nc4)cn3)CC2)cc1 [Compound 224, N-(6-(4-fluorophenoxy)pyridin-3-yl)-6-(4-(4-(methylsulfonyl)benzoyl)piperidine-1-carbonyl)nicotinamide]",< 500
10,"CS(=O)(=O)c1ccc(C(=O)C2CCN(C(=O)c3ccc(C(=O)NC4CCN(Cc5ccc(F)cc5)CC4)nc3)CC2)cc1 [Compound 225, N-(1-(4-fluorobenzyl)piperidin-4-yl)-5-(4-(4-(methylsulfonyl)benzoyl)piperidine-1-carbonyl)picolinamide]",< 500
11,"CS(=O)(=O)c1ccc(OC2CCN(C(=O)c3ccc(C(=O)NC4CCN(Cc5ccc(F)cc5)CC4)nc3)CC2)cc1 [Compound 226, N-(1-(4-fluorobenzyl)piperidin-4-yl)-5-(4-(4-(methylsulfonyl)phenoxy)piperidine-1-carbonyl)picolinamide]",< 500
12,"CS(=O)(=O)c1ccc(OC2CCN(C(=O)c3ccc(C(=O)NC4CCN(Cc5ccc(C#N)cc5)CC4)nc3)CC2)cc1 [Compound 227, N-(1-(4-cyanobenzyl)piperidin-4-yl)-5-(4-(4-(methylsulfonyl)phenoxy)piperidine-1-carbonyl)picolinamide]",< 500
13,"CS(=O)(=O)c1ccc(C(=O)C2CCN(C(=O)c3ccc(C(=O)NC4CCN(Cc5ccc(C#N)cc5)CC4)nc3)CC2)cc1 [Compound 228, N-(1-(4-cyanobenzyl)piperidin-4-yl)-5-(4-(4-(methylsulfonyl)benzoyl)piperidine-1-carbonyl)picolinamide]",< 500
14,"CS(=O)(=O)c1ccc(C(=O)C2CCN(C(=O)c3ccc(C(=O)NC4CCN(Cc5ccc(N6CCCC6)cc5)CC4)cn3)CC2)cc1 [Compound 229, 6-(4-(4-(methylsulfonyl)benzoyl)piperidine-1-carbonyl)-N-(1-(4-(pyrrolidin-1-yl)benzyl)piperidin-4-yl)nicotinamide]",1000 to 5000
15,"CS(=O)(=O)c1ccc(OC2CCN(C(=O)c3ccc(C(=O)NC4CCN(Cc5ccc(N6CCCC6)cc5)CC4)cn3)CC2)cc1 [Compound 230, 6-(4-(4-(methylsulfonyl)phenoxy)piperidine-1-carbonyl)-N-(1-(4-(pyrrolidin-1-yl)benzyl)piperidin-4-yl)nicotinamide]",500 to 1000

# Reference: patent publication US20150087673A1, “METHODS FOR USING AND BIOMARKERS FOR AMPK-ACTIVATING COMPOUNDS” (RIGEL PHARMACEUTICALS, INC., priority 2013, published 2015)
